In US7109193B2, “Tricyclic diazepines tocolytic oxytocin receptor antagonists” (Wyeth, priority 2001, dated 2006):

Legend:
[1] = target: T1, human vasopressin V1a receptor subtype (Homo sapiens, UniProt P37288); assay: Vasopressin binding in Chinese Hamster Ovary cell membranes expressing human vasopressin V1a subtype receptors; settings: CHO cell membranes, [3H]Manning ligand; for IC50: values in parentheses; for inhibition at 0.1 µM: 100 nM, values without parentheses
T1 construct: host or cells: CHO cells (pZeoSV vector for the Thibonnier line)
T1 sequence (P37288 whole entry): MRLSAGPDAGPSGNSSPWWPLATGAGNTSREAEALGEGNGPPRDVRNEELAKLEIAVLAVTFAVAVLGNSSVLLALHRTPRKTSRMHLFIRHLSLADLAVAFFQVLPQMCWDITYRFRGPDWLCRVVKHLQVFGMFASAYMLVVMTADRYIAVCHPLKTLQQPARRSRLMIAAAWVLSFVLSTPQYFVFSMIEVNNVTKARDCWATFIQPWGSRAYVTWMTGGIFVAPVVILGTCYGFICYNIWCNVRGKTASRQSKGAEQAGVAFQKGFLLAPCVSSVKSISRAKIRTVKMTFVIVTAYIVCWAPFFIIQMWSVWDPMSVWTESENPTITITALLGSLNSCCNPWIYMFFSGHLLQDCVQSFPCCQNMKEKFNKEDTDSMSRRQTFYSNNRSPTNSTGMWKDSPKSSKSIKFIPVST
How it was run: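 Displacement of [3H]Manning ligand (8 nM working solution) from human V1a receptors in CHO cell membranes, 25–50 μg protein per well. Incubation ran 60 min at room temperature in 50 mM Tris-HCl pH 7.4 with protease inhibitors, followed by filtration and scintillation counting. Results are given as IC50 or percent inhibition.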

IC50 [1] [nM]	melting point [°C]	inhibition at 0.1 µM [1] [%]	SMILES
225	187 to 190	–	COc1cc(C(=O)N2Cc3ccc(C(=O)N(C)CCN(C)C)n3Cc3ccccc32)ccc1-c1ccccc1C(F)(F)F [Example 22, N-Methyl-[N-(2-dimethylamino)ethyl]-10-{[2-methoxy-2′-trifluoromethyl-[1,1′-biphenyl]-4-yl]carbonyl}-10,11-dihydro-5H-pyrrolo[2,1-c][1,4]benzodiazepine-3-carboxamide]
66.6	155 to 158	–	O=C(c1ccc(-c2cccc3ccccc23)nc1)N1Cc2cccn2Cc2ccccc21 [Example 28, [6-(Naphthalen-1-yl)-pyridin-3-yl]-[10,11-dihydro-5H-pyrrolo[2,1-c][1,4]benzodiazepin-10-yl]methanone]
131	160 to 162	–	Cc1ccc(-c2ccc(C(=O)N3Cc4cccn4Cc4ccccc43)cc2)c2ccccc12 [Example 25, [4-(4-Methyl-naphthalen-1-yl)phenyl][10,11-dihydro-5H-pyrrolo[2,1-c][1,4]benzodiazepin-10-yl]methanone]
378	140 to 142	–	COc1cc(C(=O)N2Cc3ccc(C(=O)N(C)CCCN(C)C)n3Cc3ccccc32)ccc1-c1ccccc1C(F)(F)F [Example 21, N-Methyl-[N-(3-dimethylamino)propyl]-10-{[2-methoxy-2′-trifluoromethyl-[1,1′-biphenyl]-4-yl]carbonyl}-10,11-dihydro-5H-pyrrolo[2,1-c][1,4]benzodiazepin-3-carboxamide]
22.5	115 to 117.5	–	O=C(c1ccc(-c2cccc3ccccc23)cc1Cl)N1Cc2cccn2Cc2ccccc21 [Example 24, [2-Chloro-4-(naphthalen-1-yl)phenyl][10,11-dihydro-5H-pyrrolo[2,1-c][1,4]benzodiazepin-10-yl]methanone]
45.6	141 to 144	–	COc1cc(C(=O)N2Cc3cccn3Cc3ccccc32)ccc1-n1c(C)ccc1C [Example 27, [4-(2,5-Dimethyl-1-H-pyrrol-1-yl)-3-methoxy-phenyl][10,11-dihydro-5H-pyrrolo[2,1-c][1,4]benzodiazepin-10-yl]methanone]
–	–	63	COc1ccccc1-c1ccc(C(=O)N2Cc3ccc(C(=O)N(C)CCN(C)C)n3Cc3ccccc32)cc1 [Example 90, N-[2-(Dimethylamino)ethyl]-10-[(2′-methoxy[1,1′-biphenyl]-4-yl)carbonyl]-N-methyl-10,11-dihydro-5H-pyrrolo[2,1-c][1,4]benzodiazepine-3-carboxamide]
–	–	74	COc1cc(C(=O)N2Cc3ccc(C(=O)N(C)CCCN(C)C)n3Cc3ccccc32)ccc1-c1ccccc1C [Example 105, N-[3-(Dimethylamino)propyl]-10-[(2-methoxy-2′-methyl[1,1′-biphenyl]-4-yl)carbonyl]-N-methyl-10,11-dihydro-5H-pyrrolo[2,1-c][1,4]benzodiazepine-3-carboxamide]
–	85 to 95	14	Cc1cc(C(=O)N2Cc3ccc(C(=O)N4CCN(CCCN(C)C)CC4)n3Cc3ccccc32)ccc1-c1ccccc1C(F)(F)F [Example 4, [4-(3-Dimethylaminopropyl)-piperazin-1-yl]-[10-(2-methyl-2′-trifluoromethyl-[1,1′-biphenyl]-4-yl)carbonyl]-[10,11-dihydro-5H-pyrrolo[2,1-c][1,4]benzodiazepin-3-yl]-methanone]
717	125 to 128	–	COc1cc(C(=O)N2Cc3ccc(C(=O)N4CCC[C@H]4CN4CCCC4)n3Cc3ccccc32)ccc1-c1ccccc1C(F)(F)F [Example 20, {[10-(2-Methoxy)-2′-trifluoromethyl-[1,1′-biphenyl]-4-yl]carbonyl}-[(2S)-[(2-pyrrolidin-1-yl)methyl]pyrrolidin-1-yl]-10,11-dihydro-5H-pyrrolo[2,1-c][1,4]benzodiazepin-3-yl-methanone]
–	–	0	COc1cccc(-c2cc(OC)c(C(=O)N3Cc4ccc(C(=O)NCCCN(C)C)n4Cc4ccccc43)cc2Cl)c1 [Example 79, 10-[(6-Chloro-3,3′-dimethoxy[1,1′-biphenyl]-4-yl)carbonyl]-N-[3-(dimethylamino)propyl]-10,11-dihydro-5H-pyrrolo[2,1-c][1,4]benzodiazepine-3-carboxamide]
70.4	–	–	COc1cc(-c2ccccc2C)ccc1C(=O)N1Cc2ccc(C(=O)N(C)CCCN(C)C)n2Cc2ccccc21 [Example 11, N-Methyl-N-[3-(dimethylamino)propyl]-10-[(3-methoxy-2′-methyl[1,1′-biphenyl]-4-yl)carbonyl]-10,11-dihydro-5H-pyrrolo[2,1-c][1,4]benzodiazepine-3-carboxamide]
459	–	–	COc1ccccc1-c1ccc(C(=O)N2Cc3ccc(C(=O)N4CCC(N5CCCCC5)CC4)n3Cc3ccccc32)cc1 [Example 111, {10-[(2′-Methoxy[1,1′-biphenyl]-4-yl)carbonyl]-10,11-dihydro-5H-pyrrolo[2,1-c][1,4]benzodiazepin-3-yl}[4-(1-piperidinyl)-1-piperidinyl]methanone]
317	–	–	COc1ccccc1-c1ccc(C(=O)N2Cc3ccc(C(=O)N4CCN(CCN5CCOCC5)CC4)n3Cc3ccccc32)cc1C [Example 206, {10-[(2′-Methoxy-2-methyl[1,1′-biphenyl]-4-yl)carbonyl]-10,11-dihydro-5H-pyrrolo[2,1-c][1,4]benzodiazepin-3-yl}{4-[2-(4-morpholinyl)ethyl]-1-piperazinyl}methanone]
818	–	–	C=CCN1CCN(C(=O)c2ccc3n2Cc2ccccc2N(C(=O)c2ccc(-c4ccccc4OC)cc2)C3)CC1 [Example 221, (4-Allyl-1-piperazinyl){10-[(2′-methoxy[1,1′-biphenyl]4-yl)carbonyl]-10,11-dihydro-5H -pyrrolo[2,1-c][1,4]benzodiazepin-3-yl}methanone]
